Here are results for four molecules from patent US4526989A, “1,4-Bis (substituted-amino)-5,8-dihydroxy-anthraquinones and leuco bases thereof” (priority 1979, dated 1985).

SMILES strings stand for the structures. “And” between values parts separate entries of the source, which are not always exact repeats. Equal values may be shown once. Read-outs that look alike come from different tables or passages of the source.

One series relates to melanotic melanoma B16. In words: Melanotic Melanoma B16 test. The format is in vivo, C57BC/6 mice. The essentials: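 C57BC/6 mice (10 per group) were implanted i.p. with B16 melanoma homogenate, then dosed i.p. on days 1–9 at various doses.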
In series [1] the test system is lymphocytic leukemia P388. The experiment in a line: Lymphocytic leukemia P388 test (oral drug administration). The format is in vivo, DBA/2 mice. The note with it: for T/C × 100: efficacy ≥125%. As for the experimental part:
The animals used are DBA/2 mice all of one sex, weighing a minimum of 17 g. and all within a 3 gram weight range. There are 5 or 6 animals per test group. The tumor transplant is by intraperitoneal injection of 0.1 ml. of dilute ascitic fluid containing 10^6 cells of lymphocytic leukemia P388. The test compounds are administered intraperitoneally on days one, 5 and 9 (relative to tumor inoculation) at various doses. The animals are weighed and survivors are recorded on a regular basis for 30 days. The median survival time and the ratio of survival time for treated (T)/control (C) animals are calculated. […] The results of this test with representative compounds of the present invention appear in Table I. The criterion for efficacy is T/C×100≥125%.
The procedure used is the same as for the previously described test for lymphocytic leukemia P388 except that the test compounds are administered orally at various doses rather than intraperitoneally. The criterion for efficacy is T/C×100≥125%.

The test system of series [2] is lymphocytic leukemia P388. In words: Lymphocytic leukemia P388 test (intraperitoneal administration). The format is in vivo, DBA/2 mice. The essentials: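 DBA/2 mice, single sex, 5-6 per group, inoculated i.p. with 10^6 P388 leukemia cells. Compounds given i.p. at various doses on days 1, 5 and 9; survival followed 30 days, reporting median survival time and treated/control (T/C) survival ratio.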

A short description of series [3]: Storage behaviour of solid. The format is physicochemical.
Series [4] has as its system Ridgway Osteogenic Sarcoma. The experiment in a line: Ridgway Osteogenic Sarcoma. The format is in vivo, AKD2 F1 /J mice. The conditions noted are these: for % Inhibition Tumor Growth / % Showing 50% Tumor Regression / No. Without Tumors/No. Survivors / Tumor: 7 days after therapy stopped; for Median Survival / T/C: 63 days after therapy stopped. The procedure: The animals used are AKD2 F1 /J mice, all of the same sex, weighing a minimim of 17 g. and all within a three-gram weight range. There are normally 8 animals per test group. The tumor is administered subcutaneously by trocar as five 2-mm. fragments per mouse. The test compounds are administered intraperitoneally every 4 days for a total of 6 inoculations beginning on day 15 (relative to tumor inoculation) at various doses. The animals are weighed and survivors are recorded on a regular basis for 90 days. The regression of tumors is recorded in all test animals.

[5] abbreviates: 60 mg./kg., administered intraperitoneally, positive control.
Setting [6] is: 3 mg./kg. i.p., days 1 through 9.
[7] abbreviates: 6 mg./kg. i.p., days 1 through 9.
[8] abbreviates: 12 mg./kg. i.p., days 1 through 9.
The mark [9] stands for this setting: 25 mg./kg. i.p., days 1 through 9.
The mark [10] stands for this setting: Mus musculus, ip, 6 mg./kg. i.p., days 1 through 9, efficacy ≥125%, read-out: T/C × 100.
Setting [11] is: Mus musculus, ip, 12 mg./kg. i.p., days 1 through 9, efficacy ≥125%, read-out: T/C × 100.
Setting [12] is: Mus musculus, ip, 25 mg./kg. i.p., days 1 through 9, efficacy ≥125%, read-out: T/C × 100.
Where [13] appears, read: 3 mg./kg. i.p., days 1, 5 and 9.
Setting [14] is: 6 mg./kg. i.p., days 1, 5 and 9.
Where [15] appears, read: 12 mg./kg. i.p., days 1, 5 and 9.
Where [16] appears, read: 25 mg./kg. i.p., days 1, 5 and 9.
Setting [17] is: 50 mg./kg. i.p., days 1, 5 and 9.
Where [18] appears, read: Mus musculus, P388, ip, 3 mg./kg. i.p., days 1, 5 and 9, efficacy ≥125%, read-out: T/C × 100.
Setting [19] is: Mus musculus, P388, ip, 6 mg./kg. i.p., days 1, 5 and 9, efficacy ≥125%, read-out: T/C × 100.
The mark [20] stands for this setting: Mus musculus, P388, ip, 12 mg./kg. i.p., days 1, 5 and 9, efficacy ≥125%, read-out: T/C × 100.
[21] abbreviates: Mus musculus, P388, ip, 25 mg./kg. i.p., days 1, 5 and 9, efficacy ≥125%, read-out: T/C × 100.
The mark [22] stands for this setting: Mus musculus, P388, ip, 50 mg./kg. i.p., days 1, 5 and 9, efficacy ≥125%, read-out: T/C × 100.

Take `O=c1[nH]cc(F)c(=O)[nH]1` [5-Fluorouracil, reference compound]: the response vs control in vivo at 60 mg/kg in the series on melanotic melanoma B16 (Mus musculus, ip, 60 mg./kg. injection, positive control, efficacy ≥125%, read-out: T/C × 100) amounted to 128%. Besides, in series [1] (setting [5]), the “Median Survival Time” value was 19.0 days and 20.0 days; the “T/C × 100” value was 190% and 174%. For the same molecule, the response vs control in vivo at 40 mg/kg in series [2] (Mus musculus, P388, ip, 40 mg./kg. injection, positive control, efficacy ≥125%, read-out: T/C × 100) is 164% and 155%. Moreover, the response vs control in vivo at 60 mg/kg in series [2] (Mus musculus, P388, ip, read-out: T/C × 100) is 200%.

For the molecule `O=C1C2=C(NCCNCCNCCO)CCC(NCCNCCNCCO)=C2C(=O)c2c(O)ccc(O)c21` [Example 33, Leuco-1,4-bis[2-[2-(2-hydroxyethylamino)ethylamino]ethylamino]-5,8-dihydroxyanthraquinone], the “storage behaviour of solid” value was “coalesces into a solid cake” in series [3] (stored at 25° C.) and “remains granular” in series [3] (stored at -25° C.).

Turning to `CN(C)CCNC1=C2C(=O)c3c(O)ccc(O)c3C(=O)C2=C(NCCN(C)C)CC1` [Leuco-1,4-bis[(2-dimethylaminoethyl)amino]-5,8-dihydroxy-anthraquinone], the “Median Survival Time” value in the series on melanotic melanoma B16 (setting [6]) turned out to be 21.0 days; with melanotic melanoma B16 (setting [7]) it was 21.5 days; in the series on melanotic melanoma B16 (setting [8]), 23.0 days; in the series with melanotic melanoma B16 (setting [9]) it was 25.0 days; in series [1] (12 mg./kg. oral), 12.5 days; in series [1] (25 mg./kg. oral), 13.5 days. Besides, the “Median Survival Time” value amounted to 16.0 days in series [1] (50 mg./kg. oral); 13.0 days in series [2] (1.5 mg./kg. i.p., days 1, 5 and 9); 14.5 days in series [2] (setting [13]); 16.0 days in series [2] (setting [14]); 17.5 days in series [2] (setting [15]); 19.0 days in series [2] (setting [16]). For the same molecule, the “Median Survival Time” value in series [2] (setting [17]) was determined as 24.5 days; in series [2] (100 mg./kg. i.p., days 1, 5 and 9), 24.5 days. For the same molecule, the response vs control in vivo at 3 mg/kg was determined as 127% in the series on melanotic melanoma B16 (Mus musculus, ip, 3 mg./kg. i.p., days 1 through 9, efficacy ≥125%, read-out: T/C × 100) and 145% in series [2] (setting [18]). Further, the response vs control in vivo at 6 mg/kg in the series with melanotic melanoma B16 (setting [10]) turned out to be 130%; in series [2] (setting [19]), 160%. Moreover, the values for the response vs control in vivo at 12 mg/kg (in the series on melanotic melanoma B16 (setting [11]); in series [2] (setting [20])) were 139% and 175%, respectively. The response vs control in vivo at 25 mg/kg came to 151% with melanotic melanoma B16 (setting [12]) and 190% in series [2] (setting [21]). The “T/C × 100” value turned out to be 125% in series [1] (12 mg./kg. oral), 135% in series [1] (25 mg./kg. oral) and 160% in series [1] (50 mg./kg. oral). The response vs control in vivo at 1.5 mg/kg in series [2] (Mus musculus, P388, ip, 1.5 mg./kg. i.p., days 1, 5 and 9, efficacy ≥125%, read-out: T/C × 100) was found to be 130%. For the same molecule, the response vs control in vivo at 50 mg/kg in series [2] (setting [22]) amounted to 245%. Besides, in series [2] (Mus musculus, P388, ip, 100 mg./kg. i.p., days 1, 5 and 9, efficacy ≥125%, read-out: T/C × 100), the response vs control in vivo at 100 mg/kg came to 245%.

Regarding `CN(C)CCNc1ccc(NCCN(C)C)c2c1C(=O)c1c(O)ccc(O)c1C2=O` [1,4-Bis[(2-dimethylaminoethyl)amino]-5,8-dihydroxyanthraquinone], the “Median Survival Time” value worked out at 25.5 days in the series on melanotic melanoma B16 (setting [6]); 27.0 days with melanotic melanoma B16 (setting [7]); 28.5 days with melanotic melanoma B16 (setting [8]); 24.5 days in the series with melanotic melanoma B16 (setting [9]); 15.0 days in series [1] (3 mg./kg. oral); 16.0 days in series [1] (6 mg./kg. oral). In addition, the “Median Survival Time” value amounted to 16.0 days in series [1] (12 mg./kg. oral); 19.5 days in series [2] (setting [13]); 21.0 days in series [2] (setting [14]); 23.0 days in series [2] (setting [15]); 20.5 days in series [2] (setting [16]); 25.0 days in series [2] (setting [17]). Besides, the response vs control in vivo at 3 mg/kg with melanotic melanoma B16 (Mus musculus, ip, read-out: T/C × 100) is 142%; in series [2] (setting [18]), 217%. Also, the response vs control in vivo at 6 mg/kg with melanotic melanoma B16 (setting [10]) is 150%; in series [2] (setting [19]), 233%. The results for the response vs control in vivo at 12 mg/kg (with melanotic melanoma B16 (setting [11]); in series [2] (setting [20])) were 158% and 256%, respectively. Further, the response vs control in vivo at 25 mg/kg is 136% in the series on melanotic melanoma B16 (setting [12]) and 228% in series [2] (setting [21]). Besides, the “T/C × 100” value turned out to be 130% in series [1] (3 mg./kg. oral), 139% in series [1] (6 mg./kg. oral) and 139% in series [1] (12 mg./kg. oral). Further, the response vs control in vivo at 50 mg/kg in series [2] (setting [22]) is 278%. Further, the “% Inhibition Tumor Growth” value in series [4] (6 mg./kg. i.p.) is on record as 19%; in series [4] (12 mg./kg. i.p.), 61%; in series [4] (25 mg./kg. i.p.), 41%; in series [4] (50 mg./kg. i.p.), 78%; in series [4] (100 mg./kg. i.p.), 96%. Moreover, the “% Showing 50% Tumor Regression” value in series [4] (6 mg./kg. i.p.) stood at 0%; in series [4] (12 mg./kg. i.p.), 0%; in series [4] (25 mg./kg. i.p.), 0%; in series [4] (50 mg./kg. i.p.), 25%; in series [4] (100 mg./kg. i.p.) it was 28%. The “No. Without Tumors/No. Survivors” value in series [4] (6 mg./kg. i.p.) was 0/6; in series [4] (12 mg./kg. i.p.), 0/3; in series [4] (25 mg./kg. i.p.) it was 0/8; in series [4] (50 mg./kg. i.p.) it was 2/6; in series [4] (100 mg./kg. i.p.) it was 2/5. Moreover, the Tumor was 960 (mm.) 2 in series [4] (6 mg./kg. i.p.); 470 (mm.) 2 in series [4] (12 mg./kg. i.p.); 653 (mm.) 2 in series [4] (25 mg./kg. i.p.); 263 (mm.) 2 in series [4] (50 mg./kg. i.p.); 52 (mm.) 2 in series [4] (100 mg./kg. i.p.). The “Median Survival” value came out at 57.5 days in series [4] (6 mg./kg. i.p.); 37 days in series [4] (12 mg./kg. i.p.); 78 days in series [4] (25 mg./kg. i.p.); 92.5 days in series [4] (50 mg./kg. i.p.); 48 days in series [4] (100 mg./kg. i.p.). In addition, the T/C in series [4] (6 mg./kg. i.p.) was 129%; in series [4] (12 mg./kg. i.p.), 83%; in series [4] (25 mg./kg. i.p.), 175%; in series [4] (50 mg./kg. i.p.) it was 208%; in series [4] (100 mg./kg. i.p.) it was 108%.
